Key:
Format in all cases: in vivo
Rhizoctonia solani [1] = experiment: Rhizoctonia solani infested compost soil, marrow peas (Example 3); conditions: for Weight of fresh plant / Root evaluation (1-4): 3 weeks; for Number of sound peas after 3 wks.: of 25 grains
Excerpt: Steamed compost soil was inoculated with mycelium of Rhizoctonia solani. After homogeneous mixture of the products with the infested soil, the products were present in the form of 20% powder preparations, the seeding of 25 grains of marrow peas of the variety "Miracle of Kelvedon" per concentration was effected without waiting period in clay dishes holding 1 liter of soil. The table lists the number of germinated sound peas, the weight of the fresh plant, and a root evaluation after a cultivation period of three weeks at 22°-25° C.

Rhizoctonia solani [2] = experiment: Limit concentration of soil-fungicidal effectiveness, Rhizoctonia solani, infested soil seeded with peas (Example 1); conditions: soil, 480 h, read-out: Limit concentration of the fungicidal effectiveness
Procedure, shortened: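 Compound mixed homogeneously into steamed compost soil inoculated with Rhizoctonia solani mycelium, and 25 marrow pea seeds ("Miracle of Kelvedon") sown per concentration without a waiting period. Grown 20 to 23 days at 22°-25° C. Limit concentration is the lowest giving sound, necrosis-free roots and at least 90% germination relative to steamed soil.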

Pythium ultimum [3] = experiment: Limit concentration of soil-fungicidal effectiveness, Pythium ultimum, infested soil seeded with peas (Example 1); conditions: 20 to 23 days, 22°-25° C
Method: Limit concentrations of the soil-fungicidal effectiveness at homogeneous mixture of the products with the infested soil. Basic condition in the evaluation are a sound root formation without fungus necroses and germination of the seed of at least 90% compared with the result obtained in steamed soil. Per concentration there were seeded 25 grains of peas of the variety "Miracle of Kelvedon" (marrow pea) without a waiting period. The cultivation time in the tests was 20 to 23 days at a temperature of 22°-25° C. Four commercial products were included in the test series.
Pythium ultimum: -- Steamed compost soil was inoculated with mycelium of Pythium ultimum

[4] = system: Fusarium oxysporum f. callistephi; experiment: Fusarium infested compost soil, Callistephus chinesis seedlings (Example 5); conditions: of 4 seedlings
Excerpt: Steamed compost soil was inoculated with a spore suspension of Fusarium oxysporum f. callistephi. After homogeneous mixture of the products with the infested soil, the products were present as 20% powder preparations, and after a waiting period of 8 days, there were set out per concentration 4 seedlings of Callistephus chinesis, master aster "Sun Ray" as host plants.

Pythium ultimum [5] = experiment: Pythium ultimum infested compost soil, marrow peas (Example 2); conditions: 200 mg active ingr. per liter of soil
Excerpt: Steamed compost soil was inoculated with mycelium of Pythium ultimum.

[6] = 50 mg active ingr. per liter of soil
[7] = 100 mg active ingr. per liter of soil
[8] = 10 mg active ingr. per liter of soil
[9] = 20 mg active ingr. per liter of soil
[10] = 30 mg active ingr. per liter of soil
[11] = 40 mg active ingr. per liter of soil

O=[N+]([O-])c1c(Cl)c(Cl)c(Cl)c(Cl)c1Cl [Pentachloronitrobenzene, pentachloronitrobenzene, reference compound] was tested, and the “Weight of fresh plant” value (Rhizoctonia solani [1]; [6]) was 4 g, the “Number of sound peas after 3 wks.” value (Rhizoctonia solani [1]; [6]) was 4 and the “Weight of fresh plant” value (Rhizoctonia solani [1]; [7]) was 15 g. The “Number of sound peas after 3 wks.” value (Rhizoctonia solani [1]; [7]) was 25, the minimal effective concentration (Rhizoctonia solani [2]) was 75 µg/mL and the “Limit concentration of the fungicidal effectiveness” value (Pythium ultimum [3]) was “insufficient”.

COc1cc(Cl)c(OC)cc1Cl [1,4-dichloro-2,5-dimethoxy-benzene, 1,4-dichloro-2,5-dimethoxybenzene, reference compound] was tested, and the “Weight of fresh plant” value (Rhizoctonia solani [1]; [8]) was 0 g, the “Number of sound peas after 3 wks.” value (Rhizoctonia solani [1]; [8]) was 0 and the “Weight of fresh plant” value (Rhizoctonia solani [1]; [9]) was 0 g. The “Number of sound peas after 3 wks.” value (Rhizoctonia solani [1]; [9]) was 0, the “Root evaluation (1-4)” value (Rhizoctonia solani [1]; [10]) was 4 and the “Weight of fresh plant” value (Rhizoctonia solani [1]; [10]) was 18 g. The “Number of sound peas after 3 wks.” value (Rhizoctonia solani [1]; [10]) was 21, the “Root evaluation (1-4)” value (Rhizoctonia solani [1]; [11]) was 4 and the “Weight of fresh plant” value (Rhizoctonia solani [1]; [11]) was 18 g. For the same compound, the “Number of sound peas after 3 wks.” value (Rhizoctonia solani [1]; [11]) was 22, the “Number of attacked plants after 3 weeks” value ([4]; 50 mg active ingredient per liter of soil) was 4 and the “Number of attacked plants after 3 weeks” value ([4]; 100 mg active ingredient per liter of soil) was 4. For the same compound, the “Number of attacked plants after 3 weeks” value ([4]; 200 mg active ingredient per liter of soil) was 4, the minimal effective concentration (Rhizoctonia solani [2]) was 30 µg/mL and the “Limit concentration of the fungicidal effectiveness” value (Pythium ultimum [3]) was “insufficient”. For the same compound, the “Root evaluation (1-4)” value (Pythium ultimum [5]; 3 weeks) was 1, the “Weight of fresh plant” value (Pythium ultimum [5]; 3 weeks) was 1 g and the “Number of sound peas after 3 wks.” value (Pythium ultimum [5]; of 25 grains) was 2.
